Source: US12195473B2, “KRAS mutant protein inhibitors” (JACOBIO PHARMACEUTICALS CO., LTD, priority 2019, dated 2025)
pIC50: −log10 of the molar value.

System: HIS-KRAS (G12C)
Assay type: biochemical
Settings: GDP-loaded HIS-KRAS (G12C), 1 hour pre-incubation with compound, TR-FRET; read-out: SOS1 catalyzed nucleotide exchange IC50

SMILES	pIC50
C=CC(=O)N1CCN(c2c(C#N)c(=O)n(-c3c(C)ccnc3C(C)C)c3nc(-c4c(N)c(F)c(F)c(F)c4Cl)c(Cl)cc23)C[C@H]1C (single isomer, unassigned) [Compound 10-1]	7.36
C=CC(=O)N1CCN(c2c(C#N)c(=O)n(-c3c(C)ccnc3C(C)C)c3nc(-c4c(N)c(F)c(F)c(F)c4Cl)c(Cl)cc23)C[C@H]1C (single isomer, unassigned) [Compound 10-2]	8.38
C=CC(=O)N1CCN(c2c(C#N)c(=O)n(-c3c(C)ccnc3C(C)C)c3nc(-c4c(N)c(F)c(F)c(F)c4F)c(Cl)cc23)[C@@H](C)C1 (single isomer, unassigned) [Compound 11-1]	7.53
C=CC(=O)N1CCN(c2c(C#N)c(=O)n(-c3c(C)ccnc3C(C)C)c3nc(-c4c(N)c(F)c(F)c(F)c4F)c(Cl)cc23)[C@@H](C)C1 (single isomer, unassigned) [Compound 11-2]	8.68
C=CC(=O)N1CCN(c2c(C#N)c(=O)n(-c3c(C)ccnc3C(C)C)c3nc(-c4c(F)c(F)c(F)c(N)c4Cl)c(Cl)cc23)CC1 (single isomer, unassigned) [Compound 12-1, 4-(4-acryloylpiperazin-1-yl)-7-(3-amino-2-chloro-4,5,6-trifluorophenyl)-6-chloro-1-(2-isopropyl-4-methylpyridin-3-yl)-2-oxo-1,2-dihydro-1,8-naphthyridine-3-carbonitrile]	7.80
C=CC(=O)N1[C@H](C)CN(c2c(C#N)c(=O)n(-c3c(C)ccnc3C(C)C)c3nc(-c4c(N)c(F)c(F)c(F)c4F)c(Cl)cc23)C[C@@H]1C (single isomer, unassigned) [Compound 13-1]	8.56
C=CC(=O)N1[C@H](C)CN(c2c(C#N)c(=O)n(-c3c(C)ccnc3C(C)C)c3nc(-c4c(N)c(F)c(F)c(F)c4F)c(Cl)cc23)C[C@@H]1C (single isomer, unassigned) [Compound 13-2]	7.94
C=CC(=O)N1CCN(c2c(C#N)c(=O)n(-c3c(C)ccnc3C(C)C)c3nc(-c4c(F)c(F)c(F)c(N)c4Cl)c(Cl)cc23)[C@@H](C)C1 (single isomer, unassigned) [Compound 15-1]	8.16
C=CC(=O)N1CCN(c2c(C#N)c(=O)n(-c3c(C)ccnc3C(C)C)c3nc(-c4c(F)c(F)c(F)c(N)c4Cl)c(Cl)cc23)[C@@H](C)C1 (single isomer, unassigned) [Compound 15-2]	7.08
C=CC(=O)N1[C@H](C)CN(c2c(C#N)c(=O)n(-c3c(C)ccnc3C(C)C)c3nc(-c4ccccc4F)c(Cl)cc23)C[C@@H]1C [Amgen 7.3, 4-((3S,5R)-4-acryloyl-3,5-dimethylpiperazin-1-yl)-6-chloro-7-(2-fluorophenyl)-1-(2-isopropyl-4-methylpyridin-3-yl)-2-oxo-1,2-dihydro-1,8-naphthyridine-3-carbonitrile, reference compound]	7.98
C=CC(=O)N1CCN(c2c(C#N)c(=O)n(-c3c(C)ccnc3C(C)C)c3nc(-c4c(Cl)c(N)c(F)c(F)c4Cl)c(Cl)cc23)CC1 [Compound 2, 4-(4-acryloylpiperazin-1-yl)-7-(3-amino-2,6-dichloro-4,5-difluorophenyl)-6-chloro-1-(2-isopropyl-4-methylpyridin-3-yl)-2-oxo-1,2-dihydro-1,8-naphthyridine-3-carbonitrile]	8.18

Same assay, conditions: read-out: SOS1 catalyzed nucleotide exchange IC50

SMILES	pIC50
C=CC(=O)N1CCN(c2c(C#N)c(=O)n(-c3c(C)ccnc3C(C)C)c3nc(-c4c(F)c(F)c(F)c(N)c4Cl)c(Cl)cc23)CC1 (single isomer, unassigned) [Compound 12-2, 4-(4-acryloylpiperazin-1-yl)-7-(3-amino-2-chloro-4,5,6-trifluorophenyl)-6-chloro-1-(2-isopropyl-4-methylpyridin-3-yl)-2-oxo-1,2-dihydro-1,8-naphthyridine-3-carbonitrile]	8.70
